Where only a bound is given, the exact number is not on record here.

Here are results for 24 compounds from patent publication US8546392B2, “17Beta-hydroxysteroid dehydrogenase type 1 inhibitors for the treatment of hormone-related diseases” (Universitaet des Saarlandes, priority 2008, dated 2013).

One experiment addresses 17β-HSD1 (Homo sapiens (Human), UniProt P14061). Nature of the experiment: 17β-HSD1 test assay (recombinant protein from Sf9 insect cells, 3H-estrone/NADPH). The note with it: for inhibition at 1 µM: read-out: HSD 1 μM (% inhibition of HSD1); for inhibition at 0.1 µM: read-out: HSD1 100 nM (% inhibition). The format is biochemical. On the procedure: Recombinant protein obtained from Sf9 insect cells (0.1 μg/ml) is incubated with 20 mM KH2PO4, pH 7.4, 30 nM ^3H-estrone and 1 mM NADPH for 30 min at RT in the presence of the potential inhibitor in a concentration of 1 μM or 100 nM. The stock solutions of the compounds are prepared in DMSO (dimethylsulfoxide) so that the final concentration of DMSO in the sample is 1%. After the prescribed incubation time, the reaction is quenched by adding trichloroacetic acid (10% final concentration). The samples are centrifuged in microtitration plates at 400 rpm for 10 min, and the supernatants are charged on a reversed-phase HPLC equipped with a Waters Symmetrie C18 column and Waters Sentry Guard column. The isocratic HPLC run is performed at RT with a flow rate of 1 ml/min and acetonitrile/water 48:52 as the eluent. The radioactivity was measured by means of a Packard Flow Scintillation Analyzer. […]

Another experiment deals with 17β-HSD2 (Homo sapiens (Human), UniProt P37059). Nature of the experiment: 17β-HSD2 test assay (recombinant protein from Sf9 insect cells, 3H-estradiol/NAD+). Conditions: for inhibition at 0.1 µM: read-out: HSD2 100 nM (% inhibition), inhibitor 100 nM; for inhibition at 1 µM: read-out: HSD2 1 μM (% inhibition), inhibitor 1 μM. Format: biochemical. As for the experimental part:
Recombinant protein obtained from Sf9 insect cells (0.1 μg/ml) is incubated with 20 mM KH2PO4, pH 7.4, 30 nM ^3H-estradiol and 1 mM NAD+ for 30 min at RT in the presence of the potential inhibitor in a concentration of 1 μM or 100 nM. The stock solutions of the compounds are prepared in DMSO so that the final concentration of DMSO in the sample is 1%. After the prescribed incubation time, the reaction is quenched by adding trichloroacetic acid (10% final concentration). The samples are centrifuged in microtitration plates at 400 rpm for 10 min, and the supernatants are charged on a reversed-phase HPLC equipped with a Waters Symmetrie C18 column and
Waters Sentry Guard column. The isocratic HPLC run is performed at RT with a flow rate of 1 ml/min and acetonitrile/water 48:52 as the eluent. The radioactivity was measured by means of a Packard Flow Scintillation Analyzer. The percent inhibition was calculated by means of the formulas stated above.

For the next experiment, the target named is estrogen receptor α (Homo sapiens (Human), UniProt P03372). Nature of the experiment: Estrogen receptor binding assay, ERα. Conditions: relative binding affinity (estradiol: 100%).
Another experiment deals with estrogen receptor β (Homo sapiens (Human), UniProt Q92731). Briefly: Estrogen receptor binding assay, ERβ. Conditions: relative binding affinity (estradiol: 100%).
Chain of estrogen receptor β (Q92731 whole entry): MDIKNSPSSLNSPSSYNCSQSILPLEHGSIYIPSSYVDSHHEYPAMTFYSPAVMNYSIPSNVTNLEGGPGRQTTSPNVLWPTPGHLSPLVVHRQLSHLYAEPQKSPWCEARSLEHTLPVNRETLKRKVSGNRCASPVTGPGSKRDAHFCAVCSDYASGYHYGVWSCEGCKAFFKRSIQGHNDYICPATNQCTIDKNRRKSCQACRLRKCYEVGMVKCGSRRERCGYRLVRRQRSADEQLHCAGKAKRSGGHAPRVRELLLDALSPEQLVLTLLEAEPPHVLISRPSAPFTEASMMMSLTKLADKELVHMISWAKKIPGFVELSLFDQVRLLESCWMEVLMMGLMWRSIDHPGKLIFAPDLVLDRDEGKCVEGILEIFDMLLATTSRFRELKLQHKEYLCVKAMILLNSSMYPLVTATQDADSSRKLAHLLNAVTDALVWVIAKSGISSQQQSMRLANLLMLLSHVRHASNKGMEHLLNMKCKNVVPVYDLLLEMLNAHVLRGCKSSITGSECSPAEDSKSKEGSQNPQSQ

Chain of 17β-HSD2 (P37059 whole entry): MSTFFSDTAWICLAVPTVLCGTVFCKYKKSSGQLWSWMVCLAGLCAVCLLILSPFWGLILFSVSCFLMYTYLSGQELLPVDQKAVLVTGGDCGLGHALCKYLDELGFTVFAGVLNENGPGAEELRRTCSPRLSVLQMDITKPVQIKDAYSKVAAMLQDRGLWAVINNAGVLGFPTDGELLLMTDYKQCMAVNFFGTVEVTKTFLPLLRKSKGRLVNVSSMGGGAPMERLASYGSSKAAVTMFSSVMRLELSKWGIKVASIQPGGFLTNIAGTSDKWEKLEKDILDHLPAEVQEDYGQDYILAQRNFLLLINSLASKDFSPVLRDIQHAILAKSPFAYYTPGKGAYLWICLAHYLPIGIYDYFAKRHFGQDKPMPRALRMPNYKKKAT
Chain of 17β-HSD1 (P14061 whole entry): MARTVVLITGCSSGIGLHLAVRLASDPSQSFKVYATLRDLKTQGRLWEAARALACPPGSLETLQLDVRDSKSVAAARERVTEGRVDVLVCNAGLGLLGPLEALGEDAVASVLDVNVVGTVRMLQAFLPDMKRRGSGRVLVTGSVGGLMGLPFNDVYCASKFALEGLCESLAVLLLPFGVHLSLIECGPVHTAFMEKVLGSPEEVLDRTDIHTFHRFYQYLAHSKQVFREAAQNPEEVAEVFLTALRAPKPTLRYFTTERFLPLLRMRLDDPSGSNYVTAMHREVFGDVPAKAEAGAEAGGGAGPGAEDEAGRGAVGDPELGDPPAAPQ
Chain of estrogen receptor α (P03372 whole entry): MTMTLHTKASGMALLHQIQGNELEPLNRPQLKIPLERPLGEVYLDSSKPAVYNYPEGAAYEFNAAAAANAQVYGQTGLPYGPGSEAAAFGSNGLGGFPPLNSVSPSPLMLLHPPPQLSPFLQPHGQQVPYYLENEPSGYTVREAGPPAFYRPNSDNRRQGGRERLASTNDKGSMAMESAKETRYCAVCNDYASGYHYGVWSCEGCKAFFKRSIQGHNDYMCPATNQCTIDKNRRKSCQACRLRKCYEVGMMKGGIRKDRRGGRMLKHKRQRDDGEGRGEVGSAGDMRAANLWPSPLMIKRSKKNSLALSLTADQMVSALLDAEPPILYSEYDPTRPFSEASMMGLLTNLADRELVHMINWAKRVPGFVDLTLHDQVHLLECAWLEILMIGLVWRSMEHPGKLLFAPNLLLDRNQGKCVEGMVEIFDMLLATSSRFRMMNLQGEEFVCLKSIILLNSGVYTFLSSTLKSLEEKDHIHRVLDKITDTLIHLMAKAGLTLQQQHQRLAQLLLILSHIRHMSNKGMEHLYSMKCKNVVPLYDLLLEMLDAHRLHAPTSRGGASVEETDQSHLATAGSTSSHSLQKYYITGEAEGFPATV

By inhibition is commonly meant the relative decrease from the control value, in per cent. Take `CNC(=O)/C=C/c1c(O)ccc2cc(-c3cccc(O)c3)ccc12` [Compound 39, (E)-3-(2-Hydroxy-6-(3-hydroxyphenyl)naphthalene-1-yl)-N-methylacrylamide]: the inhibition at 1 µM at 17β-HSD1 (inhibitor 1 μM) came to 57.6%; on 17β-HSD2, 73.2%. For the same compound, the inhibition at 0.1 µM came to 19.2% on 17β-HSD1 (inhibitor 100 nM) and 33.9% at 17β-HSD2.

For `O=C(/C=C/c1c(O)ccc2cc(-c3cccc(O)c3)ccc12)Nc1ccccc1` [Compound 40, (E)-3-(2-Hydroxy-6-(3-hydroxyphenyl)naphthalene-1-yl)-N-phenylacrylamide], the inhibition at 1 µM at 17β-HSD1 (inhibitor 1 μM) was 60.4%; at 17β-HSD2, 76.9%. In addition, the results for the inhibition at 0.1 µM at 17β-HSD1 (inhibitor 100 nM) and on 17β-HSD2 were less than 10% and 28.1%, respectively.

With `CNC(=O)c1c(O)ccc2cc(-c3cccc(O)c3)ccc12` [Compound 41, 2-Hydroxy-6-(3-hydroxyphenyl)-N-methyl-1-naphthamide], the inhibition at 1 µM on 17β-HSD1 (inhibitor 1 μM) came to 76.3%; at 17β-HSD2 it was 21.6%. For the same compound, the values for the inhibition at 0.1 µM at 17β-HSD1 (inhibitor 100 nM) and at 17β-HSD2 were 21.8% and less than 10%, respectively.

Turning to `O=C(Nc1cccc(O)c1)c1c(O)ccc2cc(-c3cccc(O)c3)ccc12` [Compound 43, 2-Hydroxy-N,6-bis(3-hydroxyphenyl)-1-naphthamide], the inhibition at 1 µM was 69.9% on 17β-HSD1 (inhibitor 1 μM) and less than 10% at 17β-HSD2. The inhibition at 0.1 µM is 20.5% at 17β-HSD1 (inhibitor 100 nM) and less than 10% at 17β-HSD2.

In the case of `Cc1nnc(NC(=O)c2c(O)ccc3cc(-c4cccc(O)c4)ccc23)s1` [Compound 48, 2-Hydroxy-6-(3-hydroxyphenyl)-N-(5-methyl-1,3,4-thiadiazol-2-yl)-1-naphthamide], the inhibition at 1 µM came to 68% at 17β-HSD1 (inhibitor 1 μM) and 24% at 17β-HSD2.

In the case of `Oc1cccc(-c2ccc3c(Br)c(O)ccc3c2)c1` [Compound 52, 1-Bromo-6-(3-hydroxyphenyl)naphthalene-2-ol], the values for the inhibition at 1 µM on 17β-HSD1 (inhibitor 1 μM) and on 17β-HSD2 were 88.4% and 69%, respectively. Moreover, the inhibition at 0.1 µM at 17β-HSD1 (inhibitor 100 nM) turned out to be 82.9%; at 17β-HSD2 it was 19%. Also, the “RBA ERα [%]” value on estrogen receptor α amounted to 0.081%. The “RBA ERβ [%]” value at estrogen receptor β is 0.10%.

As for `N#Cc1cc(-c2cccc(O)c2)cc2ccc(O)cc12` [Compound 53, 7-Hydroxy-3-(3-hydroxyphenyl)-1-naphthonitrile], the inhibition at 1 µM was 74.4% at 17β-HSD1 (inhibitor 1 μM) and 67% at 17β-HSD2. Also, the inhibition at 0.1 µM was 32.3% on 17β-HSD1 (inhibitor 100 nM) and 18% at 17β-HSD2.

On to `CNC(=O)CCc1c(O)ccc2cc(-c3cccc(O)c3)ccc12` [Compound 55, 3-(2-Hydroxy-6-(3-hydroxyphenyl)naphthalene-1-yl)-N-methylpropanamide], for which the inhibition at 1 µM at 17β-HSD1 (inhibitor 1 μM) was 80%; on 17β-HSD2, 35.8%. The inhibition at 0.1 µM at 17β-HSD1 (inhibitor 100 nM) and on 17β-HSD2 was less than 10% each time.

With `Oc1cccc(-c2ccc3c(-c4cncnc4)c(O)ccc3c2)c1` [Compound 61, 6-(3-Hydroxyphenyl)-1-(pyrimidin-5-yl)naphthalene-2-ol], the inhibition at 1 µM on 17β-HSD1 (inhibitor 1 μM) was 22.1%; on 17β-HSD2, 51.7%. The inhibition at 0.1 µM is less than 10% on 17β-HSD1 (inhibitor 100 nM) and 15.5% at 17β-HSD2.

On to `O=C(O)c1cccc(-c2c(O)ccc3cc(-c4cccc(O)c4)ccc23)c1` [Compound 63, 3-(2-Hydroxy-6-(3-hydroxyphenyl)naphthalene-1-yl)benzoic acid], for which the inhibition at 1 µM at 17β-HSD1 (inhibitor 1 μM) was determined as 80%; on 17β-HSD2 it was 34.2%. Moreover, the inhibition at 0.1 µM at 17β-HSD1 (inhibitor 100 nM) is 44.7%; at 17β-HSD2 it was less than 10%.

Turning to `Oc1cccc(-c2ccc3c(-c4ccc(N5CCOCC5)cc4)c(O)ccc3c2)c1` [Compound 65, 6-(3-Hydroxyphenyl)-1-(4-morpholinophenyl)naphthalene-2-ol], the figures for the inhibition at 1 µM at 17β-HSD1 (inhibitor 1 μM) and on 17β-HSD2 were 64.9% and 31.9%, respectively. For the same compound, the figures for the inhibition at 0.1 µM at 17β-HSD1 (inhibitor 100 nM) and at 17β-HSD2 were 31.9% and 12.4%, respectively.

As to `CC(=O)Nc1cccc(-c2c(O)ccc3cc(-c4cccc(O)c4)ccc23)c1` [Compound 66, N-(3-(2-Hydroxy-6-(3-hydroxyphenyl)naphthalene-1-yl)phenyl)acetamide], the figures for the inhibition at 1 µM on 17β-HSD1 (inhibitor 1 μM) and at 17β-HSD2 were 81.5% and 63.6%, respectively. The inhibition at 0.1 µM at 17β-HSD1 (inhibitor 100 nM) worked out at 35.1%; on 17β-HSD2, 24.1%.

`O=C(O)CCC(=O)Nc1ccc(-c2c(O)ccc3cc(-c4cccc(O)c4)ccc23)cc1` [Compound 67, 4-(4-(2-Hydroxy-6-(3-hydroxyphenyl)naphthalene-1-yl)phenylamino)-4-oxobutanoic acid]: the inhibition at 1 µM at 17β-HSD1 (inhibitor 1 μM) worked out at 62.3%; at 17β-HSD2, 68%. The figures for the inhibition at 0.1 µM on 17β-HSD1 (inhibitor 100 nM) and on 17β-HSD2 were less than 10% and 24.2%, respectively.

As for `O=S(=O)(Nc1cccc(-c2c(O)ccc3cc(-c4cccc(O)c4)ccc23)c1)c1ccc(Br)cc1OC(F)(F)F` [Compound 82, 4-bromo-N-{3-[2-hydroxy-6-(3-hydroxyphenyl)-1-naphthyl]phenyl}-2-(trifluoromethoxy)benzenesulfonamide], the inhibition at 1 µM at 17β-HSD1 (inhibitor 1 μM) worked out at 78.4%. Moreover, the inhibition at 0.1 µM at 17β-HSD1 (inhibitor 100 nM) came out at 40.5%.

Take `O=[N+]([O-])c1cc(C(F)(F)F)ccc1S(=O)(=O)Nc1cccc(-c2c(O)ccc3cc(-c4cccc(O)c4)ccc23)c1` [Compound 83, 2-nitro-N-{3-[2-hydroxy-6-(3-hydroxyphenyl)-1-naphthyl]phenyl}-4-(trifluoromethyl)benzenesulfonamide]: at 17β-HSD1 (inhibitor 1 μM), the inhibition at 1 µM turned out to be 78.1%. Further, the inhibition at 0.1 µM at 17β-HSD1 (inhibitor 100 nM) was determined as 49.8%.

`O=S(=O)(Nc1cccc(-c2c(O)ccc3cc(-c4cccc(O)c4)ccc23)c1)c1cc(Br)c(Br)s1` [Compound 85, 4,5-dibromo-N-{3-[2-hydroxy-6-(3-hydroxyphenyl)-1-naphthyl]phenyl}thiophene-2-sulfonamide]: the inhibition at 1 µM on 17β-HSD1 (inhibitor 1 μM) is 77.7%. Also, the inhibition at 0.1 µM on 17β-HSD1 (inhibitor 100 nM) is 54.5%.

Take `O=S(=O)(Nc1cccc(-c2c(O)ccc3cc(-c4cccc(O)c4)ccc23)c1)c1ccc2ncsc2c1` [Compound 86, N-{3-[2-hydroxy-6-(3-hydroxyphenyl)-1-naphthyl]-phenyl}-1,3-benzothiazole-6-sulfonamide]: the inhibition at 1 µM at 17β-HSD1 (inhibitor 1 μM) was determined as 80.9%. The inhibition at 0.1 µM on 17β-HSD1 (inhibitor 100 nM) came out at 71.6%.

With `O=S(=O)(Nc1cccc(-c2c(O)ccc3cc(-c4cccc(O)c4)ccc23)c1)c1cccs1` [Compound 87, N-{3-[2-hydroxy-6-(3-hydroxyphenyl)-1-naphthyl]phenyl}thiophene-2-sulfonamide], the inhibition at 1 µM on 17β-HSD1 (inhibitor 1 μM) turned out to be 80.6%. In addition, at 17β-HSD1 (inhibitor 100 nM), the inhibition at 0.1 µM is 71.7%.

For the compound `O=C(NCCc1ccc(S(=O)(=O)Nc2cccc(-c3c(O)ccc4cc(-c5cccc(O)c5)ccc34)c2)cc1)C(F)(F)F` [Compound 88, 2,2,2-trifluoro-N-[2-(4-{3-[2-hydroxy-6-(3-hydroxyphenyl)-1-naphthyl]phenylsulfamoyl}phenyl)ethyl]acetamide], the inhibition at 1 µM on 17β-HSD1 (inhibitor 1 μM) is 82.4%. Besides, the inhibition at 0.1 µM at 17β-HSD1 (inhibitor 100 nM) is 76.8%.

Consider `O=S(=O)(Nc1cccc(-c2c(O)ccc3cc(-c4cccc(O)c4)ccc23)c1)c1cc(F)c(Br)cc1F` [Compound 89, 4-bromo-2,5-difluoro-N-{3-[2-hydroxy-6-(3-hydroxyphenyl)-1-naphthyl]phenyl}benzenesulfonamide], for which, at 17β-HSD1 (inhibitor 1 μM), the inhibition at 1 µM turned out to be 78.2%. Further, on 17β-HSD1 (inhibitor 100 nM), the inhibition at 0.1 µM is 68%.

Consider `CS(=O)(=O)NC(=O)c1cccc(-c2c(O)ccc3cc(-c4cccc(O)c4)ccc23)c1` [Compound 90, 3-(2-Hydroxy-6-(3-hydroxyphenyl)naphthalene-1-yl)-N-(methylsulfonyl)-benzamide], for which the inhibition at 1 µM on 17β-HSD1 (inhibitor 1 μM) worked out at 77.3%. Also, on 17β-HSD1 (inhibitor 100 nM), the inhibition at 0.1 µM came out at 16.5%.

For `O=S(=O)(c1ccccc1)c1c(O)ccc2cc(-c3cccc(O)c3)ccc12` [Compound 91, 6-(3-Hydroxyphenyl)-1-(phenylsulfonyl)-2-naphthol], at 17β-HSD1 (inhibitor 1 μM), the inhibition at 1 µM was 33%.

Turning to `Cc1ccc(S(=O)(=O)c2c(O)ccc3cc(-c4cccc(O)c4)ccc23)cc1` [Compound 92], the inhibition at 1 µM at 17β-HSD1 (inhibitor 1 μM) was 75%.

As for “N-{3-[2-hydroxy-6-(3-hydroxyphenyl)-1-naphthyl]phenyl-3-nitrobenzenesulfonamide [Compound 75]”, the “HSD1 100 nM (% inhibition)” value on 17β-HSD1 (inhibitor 100 nM) was found to be 72.8%. The “HSD 1 μM (% inhibition of HSD1)” value on 17β-HSD1 (inhibitor 1 μM) is 78.9%.
